Test results from patent EP0412158A1, “ONCOSTATIC DRUG” (priority 1987, dated 1988).
“And” between values parts separate entries of the source, which are not always exact repeats. Equal values may be shown once. Read-outs that look alike come from different tables or passages of the source. Marks after values point to notes of the source that are not given here.

Experiments:
[1] = tested on: methyl cholanthrene A; experiment: Methyl cholanthrene A tumor, evaluation by elongation of period of survival (Examples 31, 34 and 35); type: in vivo, female BALB/C mice; conditions: 100 mg/kg, ip × 9 (D1~D9)
Procedure: The active compounds, M to 0, mentioned above were severally dissolved in distilled water to obtain aqueous solutions containing the compounds in a fixed concentration of 10 mg/ml. To be specific, to female BALB/C mice (five weeks old) to which methyl cholanthrene A had been transplanted in a ratio of 1.0 x 10^5 cells per mouse, […] for 9 consecutive days to determine the mice's periods of survival. For comparison, mice to which no aqueous solution was administered and mice to which aminonitrosourea was administered were similarly tested.

[2] = tested on: breast cancer (MX-1); type: in vivo, female nude mice; conditions: 100 mg/kg ip ×10; for T/C: tumor volume
Procedure: A patch of breast cancer [cancer cells recommended by National Cancer Institute (NCI) of the U.S.A.] (MX-1) measuring approximately 2 x 2 mm in area was transplanted to each of female nude mice five weeks old. To the mice, an aqueous solution of the aforementioned heteropoly acid salt (Compound M) was administered at a dose of 100 mg/kg once a day by intraperitoneal injection for 10 consecutive days on elapse of 17 days following the transplantation of tumor (ip). For 15 days following the stop of the administration, the volumes of tumor in the mice were measured to evaluate the effect of compound. At ip (x 10), significant suppression of hyperplasia appeared around the 4th day and a strong supression of hyperplasia of cancer was maintained even after 25 days following the completion of transplantation. For comparison, mice to which no aqueous solution was administered were similarly tested.

[3] = tested on: MM-46 breast cancer; type: in vivo, female C3H/He mice; conditions: for T/C: tumor weight
Procedure: The heteropoly acid salt (Compound M) mentioned above was dissolved in distilled water to obtain an aqueous solution containing the compound in a concentration of 10 mg/ml. This aqueous solution was administered to female C3H/He mice (five weeks old) to which MM-46 breast cancer had been transplanted, to test the compound for antineoplastic activity. To be more specific, the MM-46 breast cancer was transplanted to the mice in a ratio of 1.0 x 10^5 cells per mouse and the aqueous solution was administered (at a dose of 100 mg and a dose of 200 mg per kg of body weight) intraperitoneally (ip) or orally (po) for 9 consecutive days. After elapse of 14 days following the stop of the administration, the sizes of tumor were measured. For comparison, mice to which no aqueous solution was administered were similarly tested.

[4] = tested on: MM-46 breast cancer; type: in vivo, female C3H/He mice
Procedure: The aforementioned active compound M was dissolved in distilled water to obtain an aqueous solution containing the compound in a concentration of 10 mg/ml. To female C3H/He mice (five weeks old) to which MM-46 breast cancer was transplanted in a ratio of 1.0 x 10^5 cells per mouse, the aqueous solution was administered intraperitoneally (ip) or orally (po) at a dose of 100 mg and a dose of 200 mg per kg of body weight for 9 consecutive days to measure the periods of the mices survival. For comparison, mice to which no aqueous solution was administered was similarly tested.

[5] = tested on: human lung cancer (OAT); type: in vivo, female ICR/cd-1 mice; conditions: Example 39: 100 mg/kg (so in the source), IP 1~6
[6] = tested on: methyl cholanthrene A tumor; experiment: Antineoplastic activity against transplanted methyl cholanthrene A tumor, evaluation by size of tumor (Examples 1 to 6); type: in vivo, female BALB/C mice; conditions: for Average weight of tumor / Number of tumorless mice /total number of mice / Change in body weight / T/control: ip×9; for Change in body weight: body weight 13 days after transplantation; for T/control: tumor weight
Procedure: By dissolving alkylammonium salt of polymolybdic acid [NH3C3H7(iso)]s [Mo7O24] • 3H2O (Compound A) and other compounds (Compounds B to D) severally in distilled water, aqueous solutions containing the compounds in a fixed concentration of 10 mg/ml were obtained. These aqueous solutions were administered to female BALB/C mice (five weeks old) to which methyl cholanthrene A tumor had been transplanted to test the compounds for antineoplastic activity. To be specific, methyl cholanthrene A was transplanted to the mice in a ratio of 1.0 x 10^5 cells per mouse and the aqueous solutions were continuously administered to the mice by intraperitoneal injection ([…]) for nine days. On elapse of 14 days following the start of the administration, the tumors in the mice were measured. For comparison, mice to which no antineoplastic .drug was administered and mice to which aminonitroso urea was administered were tested by following the procedure described above.

[7] = Test for acute toxicity; type: in vivo, BALB/C mice, nude mice; conditions: result in words

Q: Which “Average number of days of survival ±SE” value [1] does the source give for Nas [IMo6O24] • 34H2O [Compound M] here?
A: The value was 42.57±5.77(7) days.

Q: And the ILS [1]?
A: Its ILS is 61.3%.

Q: And the “Average volume of tumor, Average ±SE” value ([2]; day 1)?
A: Its value is 333.2±25.0 mm^3.

Q: And the “Average volume of tumor, Average ±SE” value ([2]; day 2)?
A: Its value is 404.7±16.5 mm^3.

Q: What about the T/C ([2]; day 2) of the same substance?
A: Its T/C is 90.9%.

Q: What about the “Average volume of tumor, Average ±SE” value ([2]; day 3) of the same substance?
A: The value was 510.0±38.8 mm^3.

Q: What about the T/C ([2]; day 3) of the same substance?
A: The T/C was 88.6%.

Q: What about the “Average volume of tumor, Average ±SE” value ([2]; day 4) of the same substance?
A: The value was 575.0±14.4 mm^3.

Q: What about the T/C ([2]; day 4) of the same substance?
A: Its T/C is 85.9* %.

Q: What about the “Average volume of tumor, Average ±SE” value ([2]; day 5) of the same substance?
A: Its value is 555.2±44.7 mm^3.

Q: And the T/C ([2]; day 5)?
A: The T/C was 74.7** %.

Q: And the “Average volume of tumor, Average ±SE” value ([2]; day 6)?
A: Its value is 565.5±36.7 mm^3.

Q: And the T/C ([2]; day 6)?
A: The T/C was 76.1** %.

Q: And the “Average volume of tumor, Average ±SE” value ([2]; day 7)?
A: The value was 616.7±20.3 mm^3.

Q: What about the T/C ([2]; day 7) of the same substance?
A: Its T/C is 64.3 **** %.

Q: What about the “Average volume of tumor, Average ±SE” value ([2]; day 8) of the same substance?
A: Its value is 786.0±40.0 mm^3.

Q: And the T/C ([2]; day 8)?
A: Its T/C is 75.4*** %.

Q: What about the “Average volume of tumor, Average ±SE” value ([2]; day 9) of the same substance?
A: The value was 869.0±33.2 mm^3.

Q: And the T/C ([2]; day 9)?
A: The T/C was 63.6*** %.

Q: What about the “Average volume of tumor, Average ±SE” value ([2]; day 10) of the same substance?
A: Its value is 957.9±38.1 mm^3.

Q: What about the T/C ([2]; day 10) of the same substance?
A: The T/C was 64.8*** %.

Q: And the “Average volume of tumor, Average ±SE” value ([2]; day 11)?
A: Its value is 1092.7±32.4 mm^3.

Q: And the T/C ([2]; day 11)?
A: The T/C was 69.5*** %.

Q: And the “Average volume of tumor, Average ±SE” value ([2]; day 15)?
A: The value was 1540.5±106.6 mm^3.

Q: What about the T/C ([2]; day 15) of the same substance?
A: Its T/C is 61.7** %.

Q: What about the “Average volume of tumor, Average ±SE” value ([2]; day 18) of the same substance?
A: Its value is 1821.0±127.4 mm^3.

Q: What about the T/C ([2]; day 18) of the same substance?
A: The T/C was 61.5*** %.

Q: And the “Average volume of tumor, Average ±SE” value ([2]; day 21)?
A: Its value is 2182.0±148.6 mm^3.

Q: And the T/C ([2]; day 21)?
A: The T/C was 64.5*** %.

Q: And the “Average volume of tumor, Average ±SE” value ([2]; day 25)?
A: The value was 2671.7±154.5 mm^3.

Q: And the T/C ([2]; day 25)?
A: The T/C was 73.0** %.

Q: And the “Average weight of tumor 21 days after transplantation ±SE” value ([3]; 100 mg/kg/day ip×9)?
A: The value was 560±283(6) mg.

Q: What about the “Number of tumorless mice /total number of mice” value ([3]; 100 mg/kg/day ip×9) of the same substance?
A: Its value is 0/6.

Q: And the T/C ([3]; 100 mg/kg/day ip×9)?
A: The T/C was 0.277.

Q: And the “Average weight of tumor 21 days after transplantation ±SE” value ([3]; 200 mg/kg/day po×9)?
A: The value was 572±76(6) mg.

Q: And the “Number of tumorless mice /total number of mice” value ([3]; 200 mg/kg/day po×9)?
A: The value was 0/7.

Q: What about the T/C ([3]; 200 mg/kg/day po×9) of the same substance?
A: Its T/C is 0.258.

Q: And the “% ILS” value ([4]; 100 mg/kg/day ip×9)?
A: Its value is 100.9%.

Q: And the “(column without head: number of mice/total number of mice)” value ([4]; 100 mg/kg/day ip×9)?
A: The value was 1/7.

Q: What about the “Average days of survival ±SE” value ([4]; 100 mg/kg/day ip×9) of the same substance?
A: Its value is 55.1±8.7(7) days.

Q: What about the “% ILS” value ([4]; 200 mg/kg/day po×9) of the same substance?
A: The value was 59.7%.

Q: And the “(column without head: number of mice/total number of mice)” value ([4]; 200 mg/kg/day po×9)?
A: The value was 0/6.

Q: What about the “Average days of survival ±SE” value ([4]; 200 mg/kg/day po×9) of the same substance?
A: Its value is 43.8±3.9(6) days.

Q: And the T/C [5]?
A: Its T/C is 60.0%.

Q: What about the “Tumorous activity T7/T0” value ([5]; group mean) of the same substance?
A: The value was 1.56±0.24.

Q: And the “Tumorous activity T7/T0” value ([5]; individual mice, 100 mg/kg)?
A: The value was 1.25 and 1.40 and 2.05.

Q: What about the “Tumorous activity T7” value ([5]; size of tumor on 7th day, individual mice, 100 mg/kg) of the same substance?
A: The value was 12.5 omu and 14.0 omu and 20.5 omu.

Q: With “[NH3C3H7(iso)]s (Mo7O24] • 3H2O [Compound A]” as the substance, how does the toxicity ([6]; 200 mg/kg.ip for nine days, judged by increase of body weight, result in words) read?
A: Its toxicity is “very low toxicity”.

Q: What about the “Average weight of tumor” value ([6]; No. 1, 100 mg/kg) of the same substance?
A: Its value is 451.0 ± 84.7 mg.

Q: What about the “Number of tumorless mice /total number of mice” value ([6]; No. 1, 100 mg/kg) of the same substance?
A: The value was 1/8.

Q: And the “Change in body weight” value ([6]; No. 1, 100 mg/kg)?
A: Its value is “+2.50 (D1~D9) g”.

Q: What about the T/control ([6]; No. 1, 100 mg/kg) of the same substance?
A: The T/control was 0.169.

Q: What about the “Average weight of tumor” value ([6]; No. 2, 50 mg/kg) of the same substance?
A: The value was 1182.1±246.8(10) mg.

Q: What about the “Number of tumorless mice /total number of mice” value ([6]; No. 2, 50 mg/kg) of the same substance?
A: The value was 0/10.

Q: What about the “Change in body weight” value ([6]; No. 2, 50 mg/kg) of the same substance?
A: Its value is “+1.81 g”.

Q: What about the T/control ([6]; No. 2, 50 mg/kg) of the same substance?
A: Its T/control is 0.414.

Q: And the “Average weight of tumor” value ([6]; No. 2, 100 mg/kg)?
A: The value was 563.9±99.1(9) mg.

Q: And the “Number of tumorless mice /total number of mice” value ([6]; No. 2, 100 mg/kg)?
A: Its value is 0/10.

Q: What about the “Change in body weight” value ([6]; No. 2, 100 mg/kg) of the same substance?
A: Its value is “+1.97 g”.

Q: And the T/control ([6]; No. 2, 100 mg/kg)?
A: The T/control was 0.198.

Q: And the “Average weight of tumor” value ([6]; No. 2, 200 mg/kg)?
A: Its value is 1211.8±227.6(8) mg.

Q: And the “Number of tumorless mice /total number of mice” value ([6]; No. 2, 200 mg/kg)?
A: Its value is 0/8.

Q: And the “Change in body weight” value ([6]; No. 2, 200 mg/kg)?
A: Its value is “+1.81 g”.

Q: What about the T/control ([6]; No. 2, 200 mg/kg) of the same substance?
A: Its T/control is 0.424.

Q: What about the “Average weight of tumor” value ([6]; No. 3, 50 mg/kg) of the same substance?
A: The value was 1606.0±163.5(8) mg.

Q: And the “Number of tumorless mice /total number of mice” value ([6]; No. 3, 50 mg/kg)?
A: Its value is 0/8.

Q: And the “Change in body weight” value ([6]; No. 3, 50 mg/kg)?
A: Its value is “+1.68 g”.

Q: What about the T/control ([6]; No. 3, 50 mg/kg) of the same substance?
A: The T/control was 0.624.

Q: What about the acute toxicity ([7]; BALB/C mice, dose of 3,600 mg/kg) of the same substance?
A: The acute toxicity was “no toxicity”.

Q: What about the acute toxicity ([7]; nude mice, dose of 2,000 mg/kg ip) of the same substance?
A: The acute toxicity was “no toxicity”.
